{"source": "the supplement of paper PMC13207355", "conditions_in_all_cases": "exposure time: 72 h", "key": {"E13 [1]": {"tested_on": "E13 (patient-derived glioblastoma stem cells of classical subtype)", "assay": "surviving fraction (nuclei count normalised to DMSO); higher = more cells surviving (less toxic)"}, "E21 [2]": {"tested_on": "E21 (patient-derived glioblastoma stem cells of mesenchymal subtype)", "assay": "surviving fraction (nuclei count normalised to DMSO); higher = more cells surviving (less toxic)"}, "E28 [3]": {"tested_on": "E28 (patient-derived glioblastoma stem cells of classical subtype)", "assay": "surviving fraction (nuclei count normalised to DMSO); higher = more cells surviving (less toxic)"}, "E31 [4]": {"tested_on": "E31 (patient-derived glioblastoma stem cells of proneural subtype)", "assay": "surviving fraction (nuclei count normalised to DMSO); higher = more cells surviving (less toxic)"}, "E34 [5]": {"tested_on": "E34 (patient-derived glioblastoma stem cells of proneural subtype)", "assay": "surviving fraction (nuclei count normalised to DMSO); higher = more cells surviving (less toxic)"}, "E57 [6]": {"tested_on": "E57 (patient-derived glioblastoma stem cells of mesenchymal subtype)", "assay": "surviving fraction (nuclei count normalised to DMSO); higher = more cells surviving (less toxic)"}, "FT3469 [7]": {"tested_on": "FT3469 (normal neural stem cell line)", "assay": "surviving fraction (nuclei count normalised to DMSO); higher = more cells surviving (less toxic)"}, "E13 [8]": {"tested_on": "E13", "assay": "phenotypic distance (Euclidean, principal components) from DMSO controls (arbitrary units); higher = stronger morphological change"}, "E21 [9]": {"tested_on": "E21", "assay": "phenotypic distance (Euclidean, principal components) from DMSO controls (arbitrary units); higher = stronger morphological change"}, "E28 [10]": {"tested_on": "E28", "assay": "phenotypic distance (Euclidean, principal components) from DMSO controls (arbitrary units); higher = stronger morphological change"}, "E31 [11]": {"tested_on": "E31", "assay": "phenotypic distance (Euclidean, principal components) from DMSO controls (arbitrary units); higher = stronger morphological change"}, "E34 [12]": {"tested_on": "E34", "assay": "phenotypic distance (Euclidean, principal components) from DMSO controls (arbitrary units); higher = stronger morphological change"}, "E57 [13]": {"tested_on": "E57", "assay": "phenotypic distance (Euclidean, principal components) from DMSO controls (arbitrary units); higher = stronger morphological change"}, "FT3469 [14]": {"tested_on": "FT3469", "assay": "phenotypic distance (Euclidean, principal components) from DMSO controls (arbitrary units); higher = stronger morphological change"}}}
{"smiles": "CC(C)N1CCN(c2ccc(OCC3COC(Cn4cncn4)(c4ccc(Cl)cc4Cl)O3)cc2)CC1", "note": "(stereo not drawn) [Terconazole]", "values": [{"measurement": "surviving fraction", "setting": "E13 [1]; 4.1 nM", "result": 0.892}, {"measurement": "surviving fraction", "setting": "E13 [1]; 12.3 nM", "result": 0.918}, {"measurement": "surviving fraction", "setting": "E13 [1]; 37 nM", "result": 0.999}, {"measurement": "surviving fraction", "setting": "E13 [1]; 111.1 nM", "result": 0.856}, {"measurement": "surviving fraction", "setting": "E13 [1]; 333.3 nM", "result": 0.988}, {"measurement": "surviving fraction", "setting": "E13 [1]; 1000 nM", "result": 1.02}, {"measurement": "surviving fraction", "setting": "E13 [1]; 3000 nM", "result": 0.958}, {"measurement": "surviving fraction", "setting": "E21 [2]; 4.1 nM", "result": 0.938}, {"measurement": "surviving fraction", "setting": "E21 [2]; 12.3 nM", "result": 0.927}, {"measurement": "surviving fraction", "setting": "E21 [2]; 37 nM", "result": 0.891}, {"measurement": "surviving fraction", "setting": "E21 [2]; 111.1 nM", "result": 0.99}, {"measurement": "surviving fraction", "setting": "E21 [2]; 333.3 nM", "result": 0.933}, {"measurement": "surviving fraction", "setting": "E21 [2]; 1000 nM", "result": 1.03}, {"measurement": "surviving fraction", "setting": "E21 [2]; 3000 nM", "result": 0.813}, {"measurement": "surviving fraction", "setting": "E28 [3]; 4.1 nM", "result": 1.15}, {"measurement": "surviving fraction", "setting": "E28 [3]; 12.3 nM", "result": 1.04}, {"measurement": "surviving fraction", "setting": "E28 [3]; 37 nM", "result": 0.91}, {"measurement": "surviving fraction", "setting": "E28 [3]; 111.1 nM", "result": 0.941}, {"measurement": "surviving fraction", "setting": "E28 [3]; 333.3 nM", "result": 1.09}, {"measurement": "surviving fraction", "setting": "E28 [3]; 1000 nM", "result": 1.02}, {"measurement": "surviving fraction", "setting": "E28 [3]; 3000 nM", "result": 0.951}, {"measurement": "surviving fraction", "setting": "E31 [4]; 4.1 nM", "result": 1.04}, {"measurement": "surviving fraction", "setting": "E31 [4]; 12.3 nM", "result": 0.925}, {"measurement": "surviving fraction", "setting": "E31 [4]; 37 nM", "result": 0.922}, {"measurement": "surviving fraction", "setting": "E31 [4]; 111.1 nM", "result": 1.01}, {"measurement": "surviving fraction", "setting": "E31 [4]; 333.3 nM", "result": 0.96}, {"measurement": "surviving fraction", "setting": "E31 [4]; 1000 nM", "result": 0.889}, {"measurement": "surviving fraction", "setting": "E31 [4]; 3000 nM", "result": 0.873}, {"measurement": "surviving fraction", "setting": "E34 [5]; 4.1 nM", "result": 0.941}, {"measurement": "surviving fraction", "setting": "E34 [5]; 12.3 nM", "result": 0.827}, {"measurement": "surviving fraction", "setting": "E34 [5]; 37 nM", "result": 0.91}, {"measurement": "surviving fraction", "setting": "E34 [5]; 111.1 nM", "result": 1.04}, {"measurement": "surviving fraction", "setting": "E34 [5]; 333.3 nM", "result": 1.01}, {"measurement": "surviving fraction", "setting": "E34 [5]; 1000 nM", "result": 1.1}, {"measurement": "surviving fraction", "setting": "E34 [5]; 3000 nM", "result": 0.994}, {"measurement": "surviving fraction", "setting": "E57 [6]; 4.1 nM", "result": 0.985}, {"measurement": "surviving fraction", "setting": "E57 [6]; 12.3 nM", "result": 0.938}, {"measurement": "surviving fraction", "setting": "E57 [6]; 37 nM", "result": 0.963}, {"measurement": "surviving fraction", "setting": "E57 [6]; 111.1 nM", "result": 1}, {"measurement": "surviving fraction", "setting": "E57 [6]; 333.3 nM", "result": 0.978}, {"measurement": "surviving fraction", "setting": "E57 [6]; 1000 nM", "result": 1}, {"measurement": "surviving fraction", "setting": "E57 [6]; 3000 nM", "result": 0.948}, {"measurement": "surviving fraction", "setting": "FT3469 [7]; 4.1 nM", "result": 0.997}, {"measurement": "surviving fraction", "setting": "FT3469 [7]; 12.3 nM", "result": 0.89}, {"measurement": "surviving fraction", "setting": "FT3469 [7]; 37 nM", "result": 0.908}, {"measurement": "surviving fraction", "setting": "FT3469 [7]; 111.1 nM", "result": 0.85}, {"measurement": "surviving fraction", "setting": "FT3469 [7]; 333.3 nM", "result": 0.987}, {"measurement": "surviving fraction", "setting": "FT3469 [7]; 1000 nM", "result": 0.952}, {"measurement": "surviving fraction", "setting": "FT3469 [7]; 3000 nM", "result": 0.964}, {"measurement": "phenotypic distance", "setting": "E13 [8]; 4.1 nM", "result": 0.687}, {"measurement": "phenotypic distance", "setting": "E13 [8]; 12.3 nM", "result": 5.3}, {"measurement": "phenotypic distance", "setting": "E13 [8]; 37 nM", "result": 0.523}, {"measurement": "phenotypic distance", "setting": "E13 [8]; 111.1 nM", "result": 0.619}, {"measurement": "phenotypic distance", "setting": "E13 [8]; 333.3 nM", "result": 0.667}, {"measurement": "phenotypic distance", "setting": "E13 [8]; 1000 nM", "result": 0.49}, {"measurement": "phenotypic distance", "setting": "E13 [8]; 3000 nM", "result": 0.901}, {"measurement": "phenotypic distance", "setting": "E21 [9]; 4.1 nM", "result": 0.486}, {"measurement": "phenotypic distance", "setting": "E21 [9]; 12.3 nM", "result": 0.855}, {"measurement": "phenotypic distance", "setting": "E21 [9]; 37 nM", "result": 0.706}, {"measurement": "phenotypic distance", "setting": "E21 [9]; 111.1 nM", "result": 0.737}, {"measurement": "phenotypic distance", "setting": "E21 [9]; 333.3 nM", "result": 0.686}, {"measurement": "phenotypic distance", "setting": "E21 [9]; 1000 nM", "result": 0.994}, {"measurement": "phenotypic distance", "setting": "E21 [9]; 3000 nM", "result": 1.83}, {"measurement": "phenotypic distance", "setting": "E28 [10]; 4.1 nM", "result": 0.79}, {"measurement": "phenotypic distance", "setting": "E28 [10]; 12.3 nM", "result": 0.643}, {"measurement": "phenotypic distance", "setting": "E28 [10]; 37 nM", "result": 0.472}, {"measurement": "phenotypic distance", "setting": "E28 [10]; 111.1 nM", "result": 0.647}, {"measurement": "phenotypic distance", "setting": "E28 [10]; 333.3 nM", "result": 0.465}, {"measurement": "phenotypic distance", "setting": "E28 [10]; 1000 nM", "result": 0.53}, {"measurement": "phenotypic distance", "setting": "E28 [10]; 3000 nM", "result": 2.3}, {"measurement": "phenotypic distance", "setting": "E31 [11]; 4.1 nM", "result": 0.557}, {"measurement": "phenotypic distance", "setting": "E31 [11]; 12.3 nM", "result": 1.01}, {"measurement": "phenotypic distance", "setting": "E31 [11]; 37 nM", "result": 0.47}, {"measurement": "phenotypic distance", "setting": "E31 [11]; 111.1 nM", "result": 0.863}, {"measurement": "phenotypic distance", "setting": "E31 [11]; 333.3 nM", "result": 0.868}, {"measurement": "phenotypic distance", "setting": "E31 [11]; 1000 nM", "result": 0.76}, {"measurement": "phenotypic distance", "setting": "E31 [11]; 3000 nM", "result": 2.39}, {"measurement": "phenotypic distance", "setting": "E34 [12]; 4.1 nM", "result": 0.517}, {"measurement": "phenotypic distance", "setting": "E34 [12]; 12.3 nM", "result": 1.12}, {"measurement": "phenotypic distance", "setting": "E34 [12]; 37 nM", "result": 0.485}, {"measurement": "phenotypic distance", "setting": "E34 [12]; 111.1 nM", "result": 0.473}, {"measurement": "phenotypic distance", "setting": "E34 [12]; 333.3 nM", "result": 0.562}, {"measurement": "phenotypic distance", "setting": "E34 [12]; 1000 nM", "result": 0.745}, {"measurement": "phenotypic distance", "setting": "E34 [12]; 3000 nM", "result": 0.672}, {"measurement": "phenotypic distance", "setting": "E57 [13]; 4.1 nM", "result": 0.465}, {"measurement": "phenotypic distance", "setting": "E57 [13]; 12.3 nM", "result": 0.601}, {"measurement": "phenotypic distance", "setting": "E57 [13]; 37 nM", "result": 0.61}, {"measurement": "phenotypic distance", "setting": "E57 [13]; 111.1 nM", "result": 0.332}, {"measurement": "phenotypic distance", "setting": "E57 [13]; 333.3 nM", "result": 0.688}, {"measurement": "phenotypic distance", "setting": "E57 [13]; 1000 nM", "result": 0.505}, {"measurement": "phenotypic distance", "setting": "E57 [13]; 3000 nM", "result": 1.09}, {"measurement": "phenotypic distance", "setting": "FT3469 [14]; 4.1 nM", "result": 0.835}, {"measurement": "phenotypic distance", "setting": "FT3469 [14]; 12.3 nM", "result": 0.931}, {"measurement": "phenotypic distance", "setting": "FT3469 [14]; 37 nM", "result": 1.01}, {"measurement": "phenotypic distance", "setting": "FT3469 [14]; 111.1 nM", "result": 0.79}, {"measurement": "phenotypic distance", "setting": "FT3469 [14]; 333.3 nM", "result": 0.822}, {"measurement": "phenotypic distance", "setting": "FT3469 [14]; 1000 nM", "result": 0.77}, {"measurement": "phenotypic distance", "setting": "FT3469 [14]; 3000 nM", "result": 1.17}]}
